Reference: US9771359B1, “Substituted oxazole- and thiazole-based carboxamide and urea derivatives as vanilloid receptor ligands II” (MEDIFRON DBT INC., priority 2014, dated 2017)
Structures can show the parent of a compound that is named as a salt.

Molecular target: vanilloid receptor 1 (VR1/TRPV1) (Homo sapiens (Human), UniProt Q8NER1)
Assay: FLIPR assay, Ca2+ influx in CHO K1 cells transfected with the human VR1 gene
Type: cell-based
Settings: for Ki: displacement of capsaicin 100 nM, Ki from IC50 by Cheng-Prusoff equation, read-out: (f) Ki (human) [nM] Cap; for compound-alone effect on Ca2+ influx (agonist / partial agonist): compound 5 μM, % activation compared with control capsaicin 10 μM; for inhibition at 5 µM: CHO-K1, @5 μM test compound, capsaicin 100 nM, read-out: inhibition (as a percentage), Cap
Procedure: Furthermore, preference may be given to compounds according to the first aspect of the invention that cause a 50% displacement of capsaicin, which is present at a concentration of 100 nM, in a FLIPR assay with CHO K1 cells which were transfected with the human VR1 gene at a concentration of less than 2 000 nM, preferably less than 1 000 nM, particularly preferably less than 300 nM, most particularly preferably less than 100 nM, even more preferably less than 75 nM, additionally preferably less than 50 nM, most preferably less than 10 nM. In the process, the Ca^2+ influx is quantified in the FLIPR assay with the aid of a Ca^2+-sensitive dye (type Fluo-4, Molecular Probes Europe BV, Leiden, the Netherlands) in a fluorescent imaging plate reader (FLIPR, Molecular Devices, Sunnyvale, USA), as described hereinafter.
The FLIPR protocol consists of 2 substance additions during a kinetic measurement. First the compounds to be tested (5 μM) are pipetted onto the cells and the Ca^2+ influx is determined in comparison to the control (capsaicin 10 μM), providing the result as % activation and representing the compound-alone effect (calculation at peak signal related to baseline). […] After 5 min incubation, the Ca^2+ influx is related to an injection of 100 nM of capsaicin and thereby the antagonistic effect of the test compounds detected.
Desensitising agonists and antagonists lead to suppression of the Ca^2+ influx. The % inhibition is calculated compared to the maximum achievable inhibition with 10 μM of capsaicin. Triple analyses (n=3) are carried out and repeated in at least 3 independent experiments.
Starting from the percentage displacement caused by different concentrations of the compounds to be tested of general formula I, IC50 inhibitory concentrations which cause a 50-% displacement of capsaicin were calculated. Ki values for the test substances were obtained by conversion by means of the Cheng-Prusoff equation (Cheng, Prusoff; Biochem. Pharmacol. 22, 3099-3108, 1973).
Chinese hamster ovary cells (CHO K1 cells, European Collection of Cell Cultures (ECACC) United Kingdom) are stably transfected with the VR1 gene. For functional testing, these cells are plated out on poly-D-lysine-coated black 96-well plates having a clear base (BD Biosciences, Heidelberg, Germany) at a density of 25,000 cells/well. The cells are incubated overnight at 37° C. and 5% CO2 in a culture medium (Ham's F12 nutrient mixture, 10% by volume of FCS (foetal calf serum), 18 μg/ml of L-proline). The next day the cells are incubated with Fluo-4 (Fluo-4 2 μM, 0.01% by volume of Pluronic F127, Molecular Probes in HBSS (Hank's buffered saline solution), Gibco Invitrogen GmbH, Karlsruhe, Germany) for 30 min at 37° C. Subsequently, the plates are washed three times with HBSS buffer and after further incubation for 15 min at RT used for Ca^2+ measurement in a FLIPR assay. The Ca^2+-dependent fluorescence is measured before and after the addition of the substances to be tested (λex wavelength=488 nm, λem=540 nm). Quantification is carried out by measuring the highest fluorescence intensity (FC, fluorescence counts) over time.

Chain of vanilloid receptor 1 (VR1/TRPV1) (Q8NER1 whole entry): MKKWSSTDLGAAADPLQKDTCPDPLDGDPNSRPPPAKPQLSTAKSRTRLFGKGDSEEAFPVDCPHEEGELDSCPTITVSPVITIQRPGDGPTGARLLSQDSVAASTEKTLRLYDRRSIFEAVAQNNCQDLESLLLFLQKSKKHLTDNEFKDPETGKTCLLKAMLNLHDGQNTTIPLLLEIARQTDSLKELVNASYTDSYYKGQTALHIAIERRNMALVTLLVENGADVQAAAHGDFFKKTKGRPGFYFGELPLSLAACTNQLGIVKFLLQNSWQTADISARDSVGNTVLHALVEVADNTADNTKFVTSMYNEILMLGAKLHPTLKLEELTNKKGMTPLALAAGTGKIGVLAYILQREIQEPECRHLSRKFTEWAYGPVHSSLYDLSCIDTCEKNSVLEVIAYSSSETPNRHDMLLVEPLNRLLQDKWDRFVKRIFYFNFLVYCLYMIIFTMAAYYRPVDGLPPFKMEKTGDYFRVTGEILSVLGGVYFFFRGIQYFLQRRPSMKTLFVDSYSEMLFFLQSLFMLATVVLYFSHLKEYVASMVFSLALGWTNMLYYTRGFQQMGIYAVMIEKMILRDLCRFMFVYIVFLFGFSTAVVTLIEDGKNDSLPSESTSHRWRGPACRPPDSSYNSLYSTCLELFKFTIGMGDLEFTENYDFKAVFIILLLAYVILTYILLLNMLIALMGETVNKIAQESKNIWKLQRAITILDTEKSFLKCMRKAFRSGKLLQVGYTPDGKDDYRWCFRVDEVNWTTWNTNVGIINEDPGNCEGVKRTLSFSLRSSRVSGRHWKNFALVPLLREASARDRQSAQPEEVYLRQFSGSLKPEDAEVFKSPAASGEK

| SMILES | Ki | compound-alone effect on Ca2+ influx (agonist / partial agonist) | inhibition at 5 µM |
| --- | --- | --- | --- |
| CC(C(=O)NCc1oc(C(F)(F)F)nc1-c1cccc(Cl)c1)c1ccc(NCCO)nc1 (single isomer, unassigned) [EX-17, N-((4-(3-chlorophenyl)-2-(trifluoromethyl)oxazol-5-yl)methyl)-2-(6-((2-hydroxyethyl)amino)pyridin-3-yl)propanamide] | 0.7 nM |  |  |
| CC(C(=O)NCc1oc(C(F)(F)F)nc1-c1cccc(Cl)c1)c1ccc(NCCO)nc1 (stereo not drawn) [EX-13, N-((4-(3-chlorophenyl)-2-(trifluoromethyl)oxazol-5-yl)methyl)-2-(6-((2-hydroxyethyl)amino)pyridin-3-yl)propanamide] | 5.2 nM |  |  |
| CC(C)(C)c1nc(-c2cccc(Cl)c2)c(CNC(=O)Nc2cccc3cnccc23)s1 [EX-56, 1-((2-(tert-butyl)-4-(3-chlorophenyl)thiazol-5-yl)methyl)-3-(isoquinolin-5-yl)urea] | 0.1 nM |  |  |
| CC(C)(C)c1nc(-c2cccc(Cl)c2)c(CNC(=O)Nc2cccc3c2CCC3)s1 [EX-51, 1-((2-(tert-butyl)-4-(3-chlorophenyl)thiazol-5-yl)methyl)-3-(2,3-dihydro-1H-inden-4-yl)urea] | 2.9 nM | pAG (A Ca^2+ influx of 10%-60% reveals a partial agonist (pAG)) |  |
| CC(C)(C)c1nc(-c2cccc(Cl)c2)c(CNC(=O)Nc2ccc(OCCO)nc2)s1 [EX-41, 1-((2-(tert-butyl)-4-(3-chlorophenyl)thiazol-5-yl)methyl)-3-(6-(2-hydroxyethoxy)pyridin-3-yl)urea] | 27.5 nM |  |  |
| O=C(NCc1oc(C(F)(F)F)nc1-c1cccc(Cl)c1)Nc1ccc(N2CC(O)C2)nc1 [EX-32, 1-((4-(3-chlorophenyl)-2-(trifluoromethyl)oxazol-5-yl)methyl)-3-(6-(3-hydroxyazetidin-1-yl)pyridin-3-yl)urea] | 60.8 nM |  |  |
| CC(C(=O)NCc1sc(C(F)(F)F)nc1-c1cccc(Cl)c1)c1ccc(NCCO)nc1 (single isomer, unassigned) [EX-16, N-((4-(3-chlorophenyl)-2-(trifluoromethyl)thiazol-5-yl)methyl)-2-(6-((2-hydroxyethyl)amino)pyridin-3-yl)propanamide] | 41.9 nM |  |  |
| CC(C(=O)NCc1oc(C(F)(F)F)nc1-c1cccc(Cl)c1)c1ccc(C2(O)COC2)cc1 (stereo not drawn) [EX-09, N-((4-(3-chlorophenyl)-2-(trifluoromethyl)oxazol-5-yl)methyl)-2-(4-(3-hydroxyoxetan-3-yl)phenyl)propanamide] | 73.8 nM | pAG (A Ca^2+ influx of 10%-60% reveals a partial agonist (pAG)) |  |
| CC(C)(C)c1nc(-c2cccc(Cl)c2)c(CNC(=O)Nc2ccc(CO)nc2)s1 [EX-26, 1-((2-(tert-butyl)-4-(3-chlorophenyl)thiazol-5-yl)methyl)-3-(6-(hydroxymethyl)pyridin-3-yl)urea] | 10.2 nM | pAG (A Ca^2+ influx of 10%-60% reveals a partial agonist (pAG)) |  |
| CC(C)(C)c1nc(-c2cccc(Cl)c2)c(CNC(=O)Nc2ccc(CNS(C)(=O)=O)cc2)o1 [EX-38, N-(4-(3-((2-(tert-butyl)-4-(3-chlorophenyl)oxazol-5-yl)methyl)ureido)benzyl)methanesulfonamide] | 52.6 nM |  |  |
| O=C(NCc1oc(C(F)(F)F)nc1-c1cccc(Cl)c1)Nc1ccc(COCCO)nc1 [EX-48, 1-((4-(3-chlorophenyl)-2-(trifluoromethyl)oxazol-5-yl)methyl)-3-(6-((2-hydroxyethoxy)methyl)pyridin-3-yl)urea dihydrochloride] |  |  | 31% |
| CC(C(=O)NCc1oc(C(F)(F)F)nc1-c1cccc(Cl)c1)c1cnc(CCS(C)(=O)=O)c(F)c1 (stereo not drawn) [EX-11, N-((4-(3-chlorophenyl)-2-(trifluoromethyl)oxazol-5-yl)methyl)-2-(5-fluoro-6-(2-(methylsulfonyl)ethyl)pyridin-3-yl)propanamide] | 53.1 nM |  |  |
| CC(C)(C)c1nc(-c2cccc(Cl)c2)c(CNC(=O)Nc2ccc(CNS(C)(=O)=O)c(F)c2)s1 [EX-57, N-(4-(3-((2-(tert-butyl)-4-(3-chlorophenyl)thiazol-5-yl)methyl)ureido)-2-fluorobenzyl)methanesulfonamide] | 6.6 nM |  |  |
| O=C(NCc1sc(C(F)(F)F)nc1-c1cccc(Cl)c1)Nc1ccc(OCCO)nc1 [EX-43, 1-((4-(3-chlorophenyl)-2-(trifluoromethyl)thiazol-5-yl)methyl)-3-(6-(2-hydroxyethoxy)pyridin-3-yl)urea] | 29.8 nM |  |  |
| O=C(NCc1oc(C(F)(F)F)nc1-c1cccc(Cl)c1)Nc1ccc(CCO)nc1 [EX-37, 1-((4-(3-chlorophenyl)-2-(trifluoromethyl)oxazol-5-yl)methyl)-3-(6-(2-hydroxyethyl)pyridin-3-yl)urea] |  |  | 46% |
| CC(C)(C)c1nc(-c2cccc(Cl)c2)c(CNC(=O)Nc2ccc(COCCO)nc2)o1 [EX-46, 1-((2-(tert-butyl)-4-(3-chlorophenyl)oxazol-5-yl)methyl)-3-(6-((2-hydroxyethoxy)methyl)pyridin-3-yl)urea dihydrochloride] |  |  | 55% |
| O=C(NCc1oc(C(F)(F)F)nc1-c1cccc(Cl)c1)Nc1ccc(OCCO)nc1 [EX-42, 1-((4-(3-chlorophenyl)-2-(trifluoromethyl)oxazol-5-yl)methyl)-3-(6-(2-hydroxyethoxy)pyridin-3-yl)urea] | 103 nM |  |  |
| CC(C)(C)c1nc(-c2cccc(Cl)c2)c(CNC(=O)Nc2ccc(CO)c(F)c2)s1 [EX-59, 1-((2-(tert-butyl)-4-(3-chlorophenyl)thiazol-5-yl)methyl)-3-(3-fluoro-4-(hydroxymethyl)phenyl)urea] | 1.1 nM | pAG (A Ca^2+ influx of 10%-60% reveals a partial agonist (pAG)) |  |
| CC(C(=O)NCc1oc(C(F)(F)F)nc1-c1cccc(Cl)c1)c1cnc(CO)c(F)c1 (stereo not drawn) [EX-19, N-((4-(3-chlorophenyl)-2-(trifluoromethyl)oxazol-5-yl)methyl)-2-(5-fluoro-6-(hydroxymethyl)pyridin-3-yl)propanamide] | 13.8 nM |  |  |
| CC(C(=O)NCc1sc(C(F)(F)F)nc1-c1cccc(Cl)c1)c1ccc(NCCO)nc1 (single isomer, unassigned) [EX-15, N-((4-(3-chlorophenyl)-2-(trifluoromethyl)thiazol-5-yl)methyl)-2-(6-((2-hydroxyethyl)amino)pyridin-3-yl)propanamide] | 0.4 nM |  |  |
| CC(C)(C)c1nc(-c2cccc(Cl)c2)c(CNC(=O)Nc2ccc(CCO)nc2)s1 [EX-36, 1-((2-(tert-butyl)-4-(3-chlorophenyl)thiazol-5-yl)methyl)-3-(6-(2-hydroxyethyl)pyridin-3-yl)urea] |  | AG (a Ca^2+ influx of >60% relates to a pure agonist (AG)) |  |
| CC(C)(C)c1nc(-c2cccc(Cl)c2)c(CNC(=O)Nc2ccc(CO)nc2)o1 [EX-25, 1-((2-(tert-butyl)-4-(3-chlorophenyl)oxazol-5-yl)methyl)-3-(6-(hydroxymethyl)pyridin-3-yl)urea] | 73.1 nM | pAG (A Ca^2+ influx of 10%-60% reveals a partial agonist (pAG)) |  |
| CC(C)(C)c1nc(-c2cccc(Cl)c2)c(CNC(=O)Nc2ccc(COCCO)nc2)s1 [EX-47, 1-((2-(tert-butyl)-4-(3-chlorophenyl)thiazol-5-yl)methyl)-3-(6-((2-hydroxyethoxy)-methyl)pyridin-3-yl)urea dihydrochloride] | 33.3 nM |  |  |
| CC(C(=O)NCc1sc(C(F)(F)F)nc1-c1cccc(Cl)c1)c1ccc(CNS(N)(=O)=O)cc1 (stereo not drawn) [EX-06, N-((4-(3-chlorophenyl)-2-(trifluoromethyl)thiazol-5-yl)methyl)-2-(4-((sulfamoylamino)methyl)-phenyl)propanamide] | 0.7 nM |  |  |
| Cc1cccc(-c2nc(C(C)(C)C)sc2CNC(=O)C(C)c2ccc(CO)c(F)c2)c1 (stereo not drawn) [EX-08, N-((2-(tert-butyl)-4-(m-tolyl)thiazol-5-yl)methyl)-2-(3-fluoro-4-(hydroxymethyl)phenyl)propanamide] |  | AG (a Ca^2+ influx of >60% relates to a pure agonist (AG)) |  |
